According to US11213525B2, “Linear glycosidase inhibitors” (Asceneuron SA, priority 2017, dated 2022):

The compounds below were run against His-Tagged hOGA (human O-GlcNAcase) (Homo sapiens (Human), UniProt O60502) (assay: Human O-GlcNAcase enzyme inhibition assay). Conditions: 20 nM His-Tagged hOGA, 10 μM FL-GlcNAc, 60 min at room temperature, pH 6.5; activity classes defined in μM; read-out: Enzymatic OGA IC50.
Format: biochemical
Method: Then, 20 nM of His-Tagged hOGA and 10 μM of FL-GlcNAc (Fluorescein mono-beta-D-(2-deoxy-2-N-acetyl) glucopyranoside; Marker Gene Technologies Inc, M1485) were added to the 384-well plate for a final volume of 20 μl.

Chain of His-Tagged hOGA (human O-GlcNAcase) (O60502 whole entry): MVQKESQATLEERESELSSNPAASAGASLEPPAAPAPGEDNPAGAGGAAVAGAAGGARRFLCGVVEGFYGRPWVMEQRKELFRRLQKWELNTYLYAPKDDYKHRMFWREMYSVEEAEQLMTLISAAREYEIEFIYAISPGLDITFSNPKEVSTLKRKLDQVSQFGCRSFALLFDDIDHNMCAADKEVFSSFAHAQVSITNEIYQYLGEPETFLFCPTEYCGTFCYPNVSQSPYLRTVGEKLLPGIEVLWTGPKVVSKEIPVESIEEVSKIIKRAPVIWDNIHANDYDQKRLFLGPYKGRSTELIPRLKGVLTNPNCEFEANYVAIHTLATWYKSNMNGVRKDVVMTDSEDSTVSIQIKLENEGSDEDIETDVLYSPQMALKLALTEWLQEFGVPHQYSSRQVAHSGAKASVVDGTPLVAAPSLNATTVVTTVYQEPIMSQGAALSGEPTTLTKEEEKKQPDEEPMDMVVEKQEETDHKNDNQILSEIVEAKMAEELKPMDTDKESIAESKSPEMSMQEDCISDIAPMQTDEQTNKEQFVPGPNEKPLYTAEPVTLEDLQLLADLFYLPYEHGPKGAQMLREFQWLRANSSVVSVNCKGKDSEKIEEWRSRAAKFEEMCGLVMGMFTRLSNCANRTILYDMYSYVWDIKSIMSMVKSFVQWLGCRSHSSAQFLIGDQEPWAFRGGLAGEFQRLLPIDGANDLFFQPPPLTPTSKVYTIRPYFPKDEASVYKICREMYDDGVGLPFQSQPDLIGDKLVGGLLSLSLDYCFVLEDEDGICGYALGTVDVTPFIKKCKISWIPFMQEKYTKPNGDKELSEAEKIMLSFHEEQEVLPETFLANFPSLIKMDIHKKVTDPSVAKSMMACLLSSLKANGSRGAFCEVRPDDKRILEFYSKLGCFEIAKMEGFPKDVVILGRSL

| Compound | IC50 |
| --- | --- |
| CC(c1ccc2c(c1)OCC2)N1CCC(Oc2cccnc2)CC1 (racemic) [Example 32, 3-((1-(1-(2,3-dihydrobenzofuran-6-yl)ethyl)piperidin-4-yl)oxy)pyridine] | < 0.05 µM |
| CC(c1ccc2c(c1)OCC2)N1CCC(NC(=O)Cc2ccc(S(C)(=O)=O)cc2)CC1 (racemic) [Example 25, N-(1-(1-(2,3-dihydrobenzofuran-6-yl)ethyl)piperidin-4-yl)-2-(4-(methylsulfonyl)phenyl)acetamide] | < 0.05 µM |
| CC(c1ccc2c(c1)OCC2)N1CCC(Nc2cccnc2)CC1 (racemic) [Example 24, N-(1-(1-(2,3-dihydrobenzofuran-6-yl)ethyl)piperidin-4-yl)pyridin-3-amine] | 0.05 to 0.2 µM |
| CC(c1ccc2c(c1)OCC2)N1CCC(C(=O)NCc2ccc(C(F)(F)F)cc2)CC1 (racemic) [Example 23, 1-(1-(2,3-dihydrobenzofuran-6-yl)ethyl)-N-(4-(trifluoromethyl)benzyl)piperidine-4-carboxamide] | 0.2 to 1 µM |
| CC(c1ccc2c(c1)OCC2)N1CCC(C(=O)NCc2ccc(S(C)(=O)=O)cc2)CC1 (racemic) [Example 22, 1-(1-(2,3-dihydrobenzofuran-6-yl)ethyl)-N-(4-(methylsulfonyl)benzyl)piperidine-4-carboxamide] | 0.2 to 1 µM |
| CC(c1ccc2c(c1)OCC2)N1CCC(OCc2cccnc2)CC1 (racemic) [Example 35, 3-(((1-(1-(2,3-dihydrobenzofuran-6-yl)ethyl)piperidin-4-yl)oxy)methyl)pyridine] | 0.05 to 0.2 µM |
| COc1cc(OC2CCN(C(C)c3ccc4c(c3)OCC4)CC2)ccn1 (racemic) [Example 29, 4-((1-(1-(2,3-dihydrobenzofuran-6-yl)ethyl)piperidin-4-yl)oxy)-2-methoxypyridine] | < 0.05 µM |
| CC(c1ccc2c(c1)OCC2)N1CCC(Oc2ccc(S(C)(=O)=O)cn2)CC1 (racemic) [Example 30, 2-((1-(1-(2,3-dihydrobenzofuran-6-yl)ethyl)piperidin-4-yl)oxy)-5-(methylsulfonyl)pyridine] | < 0.05 µM |
| CC(c1ccc2c(c1)OCC2)N1CCC(Oc2ncc(S(C)(=O)=O)cn2)CC1 (racemic) [Example 36, 2-((1-(1-(2,3-dihydrobenzofuran-6-yl)ethyl)piperidin-4-yl)oxy)-5-(methylsulfonyl)pyrimidine] | 0.05 to 0.2 µM |
| CC(c1ccc2c(c1)OCC2)N1CCC(Oc2cccnc2)CC1 (single isomer, unassigned) [Example 28] | < 0.05 µM |
| CC(c1ccc2c(c1)OCC2)N1CCN(C(=O)NC2CCOC2)CC1 (racemic) [Example 18, 4-(1-(2,3-dihydrobenzofuran-6-yl)ethyl)-N-(tetrahydrofuran-3-yl)piperazine-1-carboxamide] | 0.05 to 0.2 µM |
| CC(c1ccc2c(c1)OCO2)N1CCN(C(=O)Nc2ccccc2)CC1 (racemic) [Example 19, 4-(1-(benzo[d][1,3]dioxol-5-yl)ethyl)-N-phenylpiperazine-1-carboxamide] | 0.2 to 1 µM |
| CC(c1ccc2c(c1)OCC2)N1CCC(Oc2ccc(C#N)cn2)CC1 (racemic) [Example 33, 6-((1-(1-(2,3-dihydrobenzofuran-6-yl)ethyl)piperidin-4-yl)oxy)nicotinonitrile] | < 0.05 µM |
| CC(c1ccc2c(c1)OCC2)N1CCC(C(=O)NCc2ccc(C#N)cc2)CC1 (racemic) [Example 21, N-(4-cyanobenzyl)-1-(1-(2,3-dihydrobenzofuran-6-yl)ethyl)piperidine-4-carboxamide] | 0.2 to 1 µM |
| CC(c1ccc2scnc2c1)N1CCC(Oc2cccnc2)CC1 (single isomer, unassigned) [Example 31, (S)-5-(1-(4-(pyridin-3-yloxy)piperidin-1-yl)ethyl)benzo[d]thiazole or (R)-5-(1-(4-(pyridin-3-yloxy)piperidin-1-yl)ethyl)benzo[d]thiazole] | < 0.05 µM |
| CC(c1ccc2c(c1)OCC2)N1CCC(Oc2cccnc2)CC1 (single isomer, unassigned) [Example 39] | 1 to 10 µM |
| CC(c1ccc2c(c1)OCC2)N1CCC(NC(=O)Cc2ccc(C(F)(F)F)cc2)CC1 (racemic) [Example 27, N-(1-(1-(2,3-dihydrobenzofuran-6-yl)ethyl)piperidin-4-yl)-2-(4-(trifluoromethyl)phenyl)acetamide] | 0.05 to 0.2 µM |
| CC(c1ccc2c(c1)OCC2)N1CCC(Oc2ncccn2)CC1 (racemic) [Example 37, 2-((1-(1-(2,3-dihydrobenzofuran-6-yl)ethyl)piperidin-4-yl)oxy)pyrimidine] | 0.2 to 1 µM |
| CC(c1ccc2c(c1)OCC2)N1CCC(NC(=O)Cc2ccc(C#N)cc2)CC1 (racemic) [Example 26, 2-(4-cyanophenyl)-N-(1-(1-(2,3-dihydrobenzofuran-6-yl)ethyl)piperidin-4-yl)acetamide] | 0.05 to 0.2 µM |
| CC(c1ccc2c(c1)OCO2)N1CCN(C(=O)Nc2ccc(Cl)cc2)CC1 (racemic) [Example 20, 4-(1-(benzo[d][1, 3]dioxol-5-yl)ethyl)-N-(4-chlorophenyl)piperazine-1-carboxamide] | 0.2 to 1 µM |
| CC(c1ccc2c(c1)OCC2)N1CCC(Oc2cccnn2)CC1 (racemic) [Example 38, 3-((1-(1-(2,3-dihydrobenzofuran-6-yl)ethyl)piperidin-4-yl)oxy)pyridazine] | 0.2 to 1 µM |
| CC(c1ccc2c(c1)OCC2)N1CCC(Oc2cncnc2)CC1 (racemic) [Example 34, 5-((1-(1-(2,3-dihydrobenzofuran-6-yl)ethyl)piperidin-4-yl)oxy)pyrimidine] | 0.05 to 0.2 µM |
